Assay results: US20130317045A1, “THIENOPYRIDINE AND THIENOPYRIMIDINE COMPOUNDS AND METHODS OF USE THEREOF” (AMBIT BIOSCIENCES CORPORATION, priority 2010, published 2013)
Where two headings read alike, the source gives them in different places.

Tests used:
[1] = test system: GM-CSFR/JAK2/STAT5 pathway in CSTF-1 cells; assay: CSTF-1 cell-based reporter assay (beta-lactamase, GM-CSF stimulated); set-up: species or system human; settings: GM-CSF at 2 ng/mL, 4 hours, read-out: Cell Assay: CS TF-1 reporter assay IC50
Experimental: CSTF-1 Cell-Based Reporter Assay
CSTF-1 cells are derived from the human erythroleukemia cell line that is growth dependent on GM-CSF and has an intact GM-CSFR/JAK2/STAT5 pathway. The cell line contains stably integrated beta-lactamase reporter gene under the control of the […] (irf 1) response element recognized by the activated transcription factor STATS. csTF-1 cells (Invitrogen K1219) were washed with assay media (97% OPTIMEM/ 0.5% dialyzed FBS/0.1 mM NEAA/1 mM Na pyr/P/S) and seeded in the same media at 5×10^5 cell/mL in T150 flask. After 16 hour incubation, cells were seeded at 2×10^5 cell/well in 50 μl volume, into Costar, clear bottom, 96-well assay plates. Serial dilutions of compounds were added to the plates with final DMSO concentration at 0.5% and GM-CSF at 2 ng/mL and the plates were then incubated at […] and 5% CO2 for 4 hours. The plates were brought to room temperature before adding Substrate Mixture according to manufacturer's protocol (Invitrogen, Catalog #K1085). The assay plates containing the substrate mixture were incubated in the dark at room temperature for 2 hours. Blue and green fluorescence was measured with excitation at 409 nm and emission at 460 nm (for blue) and excitation at 409 nm and emission at 530 nm (for green) using Spectra Max Gemini EM.

JAK2 = biological target: T1, JAK2 (Homo sapiens, UniProt O60674); assay: Competition binding assay, JAK2
T1 construct: made in house
T1 sequence (O60674 whole entry): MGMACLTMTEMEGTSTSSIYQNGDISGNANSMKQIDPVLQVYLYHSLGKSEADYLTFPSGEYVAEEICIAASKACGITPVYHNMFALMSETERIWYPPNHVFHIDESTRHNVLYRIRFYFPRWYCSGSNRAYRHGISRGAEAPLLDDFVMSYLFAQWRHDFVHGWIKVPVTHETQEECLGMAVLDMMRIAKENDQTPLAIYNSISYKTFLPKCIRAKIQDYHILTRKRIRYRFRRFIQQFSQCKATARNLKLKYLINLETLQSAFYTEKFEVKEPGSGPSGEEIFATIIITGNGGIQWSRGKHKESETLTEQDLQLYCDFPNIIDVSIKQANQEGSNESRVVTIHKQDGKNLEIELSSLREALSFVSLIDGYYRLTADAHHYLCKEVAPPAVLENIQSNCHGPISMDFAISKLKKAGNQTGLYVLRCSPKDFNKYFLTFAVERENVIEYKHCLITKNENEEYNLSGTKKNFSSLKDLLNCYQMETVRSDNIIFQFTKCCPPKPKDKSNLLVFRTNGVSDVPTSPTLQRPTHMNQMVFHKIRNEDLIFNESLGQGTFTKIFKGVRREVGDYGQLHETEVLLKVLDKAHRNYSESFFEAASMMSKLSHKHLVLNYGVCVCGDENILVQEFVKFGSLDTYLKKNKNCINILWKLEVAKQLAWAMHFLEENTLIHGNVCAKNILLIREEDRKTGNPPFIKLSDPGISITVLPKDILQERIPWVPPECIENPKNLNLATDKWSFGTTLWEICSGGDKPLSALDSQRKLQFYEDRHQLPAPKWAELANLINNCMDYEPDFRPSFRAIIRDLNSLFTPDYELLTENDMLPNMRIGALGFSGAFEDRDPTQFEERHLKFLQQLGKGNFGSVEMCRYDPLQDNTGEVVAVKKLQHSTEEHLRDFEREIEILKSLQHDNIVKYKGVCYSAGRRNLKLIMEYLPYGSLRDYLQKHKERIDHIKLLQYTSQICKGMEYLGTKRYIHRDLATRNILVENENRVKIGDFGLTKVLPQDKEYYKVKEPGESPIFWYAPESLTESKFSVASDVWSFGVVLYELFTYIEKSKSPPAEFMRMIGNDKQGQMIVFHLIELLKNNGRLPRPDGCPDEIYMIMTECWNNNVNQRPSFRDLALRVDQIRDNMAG
From the text: (§1) Competition Binding Assay to Determine Binding Constants (Kd) of the Compounds Against JAK Kinases
(§2) Competition binding assays used herein were developed, validated and performed as described in Fabian et al., Nature Biotechnology 2005, 23,329-336. Kinases were produced as fusions to T7 phage (See, Fabian et al. or WO04/015142) or alternatively, the kinases were expressed in HEK-293 cells and subsequently tagged with DNA for PCR detection (See, WO08/005310). For the binding assays, streptavidin-coated magnetic beads were treated with biotinylated affinity ligands for 30 min at rt to generate affinity resins. The liganded beads were blocked with excess biotin and washed with blocking buffer (SeaBlock (Pierce), 1% BSA, 0.05% Tween 20, 1 mM DTT) to remove unbound ligand and to reduce non-specific binding. Binding reactions were assembled by combining kinase, liganded affinity beads, and test compounds in 1× binding buffer (20% SeaBlock, 0.17×PBS, 0.05% Tween 20, 6 mM DTT). Test compounds were prepared as 100× stocks in DMSO and rapidly diluted into the aqueous environment. DMSO was added to control assays lacking a test compound. Primary screen interactions were performed in polypropylene 384-well plates in a final volume of 34 μL, while Kd determinations were performed in polystyrene 96-well plates in a final volume of 135 μL. The assay plates were incubated at room temperature with shaking for 1 hour, long enough for binding reactions to reach equilibrium, and the affinity beads were washed extensively with wash buffer (1× PBS, 0.05% Tween 20) to remove unbound protein. The beads were then resuspended in elution buffer (1× PBS, 0.05% Tween 20, 2 μM non-biotinylated affinity ligand) and incubated at room temperature with shaking for 30 min. The kinase concentration in the eluates was measured by quantitative PCR. Each kinase was tested individually against each compound. Kds were determined using eleven serial threefold dilutions. A selectivity score, which is a quantitative measure of selectivity of a compound against a panel of enzymes, may be calculated for a compound by dividing the number of enzymes for which a compound meets a set criteria, (for example, a binding constant of 100 nM or less), by the total number of enzymes tested.

JAK3 = biological target: T2, JAK3 (Homo sapiens, UniProt P52333); assay: Competition binding assay, JAK3
T2 construct: made in house
T2 sequence (P52333 1-1124): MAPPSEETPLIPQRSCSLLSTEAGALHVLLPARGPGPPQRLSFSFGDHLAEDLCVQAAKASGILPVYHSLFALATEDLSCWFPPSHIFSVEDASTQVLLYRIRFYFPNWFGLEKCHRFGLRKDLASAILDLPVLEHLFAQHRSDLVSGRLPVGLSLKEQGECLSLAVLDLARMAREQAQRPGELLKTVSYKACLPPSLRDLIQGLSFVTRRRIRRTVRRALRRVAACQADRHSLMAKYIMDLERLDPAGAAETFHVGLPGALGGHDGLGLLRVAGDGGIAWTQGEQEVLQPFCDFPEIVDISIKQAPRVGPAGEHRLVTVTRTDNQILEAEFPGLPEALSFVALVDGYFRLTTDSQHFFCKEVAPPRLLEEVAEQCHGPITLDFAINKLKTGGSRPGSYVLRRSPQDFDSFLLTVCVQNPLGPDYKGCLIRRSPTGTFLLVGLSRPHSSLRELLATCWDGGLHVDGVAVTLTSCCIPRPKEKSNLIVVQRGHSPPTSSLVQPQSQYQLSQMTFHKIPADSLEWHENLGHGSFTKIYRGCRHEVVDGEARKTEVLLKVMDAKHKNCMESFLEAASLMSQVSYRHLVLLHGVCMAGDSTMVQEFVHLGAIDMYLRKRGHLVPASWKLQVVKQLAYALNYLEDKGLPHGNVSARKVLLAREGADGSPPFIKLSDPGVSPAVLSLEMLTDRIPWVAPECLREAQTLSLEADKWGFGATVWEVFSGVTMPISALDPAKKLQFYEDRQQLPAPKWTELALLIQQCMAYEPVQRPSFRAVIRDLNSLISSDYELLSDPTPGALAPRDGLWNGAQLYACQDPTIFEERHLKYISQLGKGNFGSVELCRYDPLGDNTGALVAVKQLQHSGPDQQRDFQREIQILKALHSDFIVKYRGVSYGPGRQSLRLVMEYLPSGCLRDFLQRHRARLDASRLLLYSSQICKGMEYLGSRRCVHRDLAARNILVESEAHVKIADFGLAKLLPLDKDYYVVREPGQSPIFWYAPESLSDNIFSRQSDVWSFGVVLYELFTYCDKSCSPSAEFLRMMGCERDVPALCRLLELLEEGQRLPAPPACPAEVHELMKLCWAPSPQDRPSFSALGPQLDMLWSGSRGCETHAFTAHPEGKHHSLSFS
From the text: as §1, §2

TYK2 = biological target: T3, TYK2 (Homo sapiens, UniProt P29597); assay: Competition binding assay, TYK2
T3 construct: made in house
T3 sequence (P29597 whole entry): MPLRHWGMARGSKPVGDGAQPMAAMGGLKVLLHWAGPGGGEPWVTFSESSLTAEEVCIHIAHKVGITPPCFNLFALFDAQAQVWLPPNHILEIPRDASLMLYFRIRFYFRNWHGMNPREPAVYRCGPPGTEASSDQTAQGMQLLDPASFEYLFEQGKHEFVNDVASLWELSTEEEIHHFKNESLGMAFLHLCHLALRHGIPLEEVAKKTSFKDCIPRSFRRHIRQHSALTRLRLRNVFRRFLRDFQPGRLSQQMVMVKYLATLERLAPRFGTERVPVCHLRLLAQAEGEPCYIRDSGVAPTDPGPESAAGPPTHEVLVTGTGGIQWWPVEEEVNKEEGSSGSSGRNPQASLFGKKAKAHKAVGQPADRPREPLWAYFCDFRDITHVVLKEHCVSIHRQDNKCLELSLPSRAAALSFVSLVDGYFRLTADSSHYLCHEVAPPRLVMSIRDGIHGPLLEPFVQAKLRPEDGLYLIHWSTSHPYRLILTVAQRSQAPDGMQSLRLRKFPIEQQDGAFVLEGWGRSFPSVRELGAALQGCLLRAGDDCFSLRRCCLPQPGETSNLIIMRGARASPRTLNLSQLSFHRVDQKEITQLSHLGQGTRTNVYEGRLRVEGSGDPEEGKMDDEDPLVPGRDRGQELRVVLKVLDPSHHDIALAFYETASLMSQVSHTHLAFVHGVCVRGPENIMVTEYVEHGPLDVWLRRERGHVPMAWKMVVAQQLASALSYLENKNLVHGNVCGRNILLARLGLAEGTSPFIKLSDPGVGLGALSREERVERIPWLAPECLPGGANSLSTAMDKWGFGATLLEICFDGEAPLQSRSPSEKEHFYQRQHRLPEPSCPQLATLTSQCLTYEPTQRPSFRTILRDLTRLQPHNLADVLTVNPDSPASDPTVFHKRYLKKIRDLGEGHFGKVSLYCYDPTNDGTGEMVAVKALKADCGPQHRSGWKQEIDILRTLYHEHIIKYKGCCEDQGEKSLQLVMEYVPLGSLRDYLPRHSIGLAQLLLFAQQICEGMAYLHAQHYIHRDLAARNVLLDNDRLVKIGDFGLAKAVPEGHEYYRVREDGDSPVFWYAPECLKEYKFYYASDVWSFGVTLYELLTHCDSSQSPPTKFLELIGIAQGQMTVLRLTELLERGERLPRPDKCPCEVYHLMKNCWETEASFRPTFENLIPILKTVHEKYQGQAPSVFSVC
From the text: as §1, §2

[2] = test system: distinct kinases tested excluding mutant variants, typically 359 or 386 kinases; assay: Kinase selectivity score from competition binding panel; settings: compound at 10 μM; fraction of kinases with inhibition of 90% or greater
Experimental: as §2

Molecule	IC50 ([1]; Homo sapiens)	Kd (JAK2)	Kd (JAK3)	Kd (TYK2)	S-Score: S(10) at 10 μM [2]	IC50 [1]
Cc1cc(Nc2nc(C(O)c3ccc(F)cc3)nc3cscc23)n[nH]1 (racemic) [Example 32, (R,S)-(4-fluorophenyl)(4-(5-methyl-1H-pyrazol-3-ylamino)thieno[3,4-d]pyrimidin-2-yl)methanol]	≤ 100 nM	≤ 1 nM	≤ 10 nM	≤ 10 nM	B (0.3 < B ≦ 0.4)	–
Cc1cc(Nc2nc(C(F)(F)c3ccc(F)cc3)nc3cc(C(C)(C)C)sc23)n[nH]1 [Example 30, 6-tert-butyl-2-(difluoro(4-fluorophenyl)methyl)-N-(5-methyl-1H-pyrazol-3-yl)thieno[3,2-d]pyrimidin-4-amine]	100 to 500 nM	1 to 10 nM	10 to 100 nM	> 100 nM	A (A ≦ 0.3)	–
Cc1cc(Nc2nc(C(O)c3ccc(F)cc3)nc3sc(C)cc23)n[nH]1 (racemic) [Example 16, (R,S)-(4-fluorophenyl)(6-methyl-4-(5-methyl-1H-pyrazol-3-ylamino)thieno[2,3-d]pyrimidin-2-yl)methanol]	≤ 100 nM	≤ 1 nM	10 to 100 nM	≤ 10 nM	C (0.4 < C ≦ 0.5)	–
(4-(1H-pyrazol-3-ylamino)-7-methylthieno[3,2-d]pyrimidin-2-yl)(4-fluorophenyl)methanone [Example 24]	–	1 to 10 nM	> 100 nM	> 100 nM	A (A ≦ 0.3)	> 500 nM
